# Assay results as given in patent US12110295B2, “WD40 repeat domain protein 5 (WDR5) degradation/disruption compounds and methods of use” (Icahn School of Medicine at Mount Sinai, priority 2018, dated 2024).
# Target: WDR5 (Homo sapiens, UniProt P61964)
# Assay: Screening of putative WDR5 degraders by Western blot in MV4;11 and/or MIAPACA2 cells
# Assay type: cell-based
# Design: After WDR5 degrader treatment, cells were collected and lysed; endogenous in cells; host or cells: MV4;11 and/or MIAPACA2
# Conditions: summary of screening, FIGS. 6-10
# In short: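 MV4;11 (1×10^6/well) or MIAPACA2 (1×10^5/well) cells treated 18 h with compound at paired doses between 0.1 and 10 μM, DMSO as control. Total lysates immunoblotted for WDR5 with vinculin, tubulin or GAPDH loading controls; fluorescent secondary detection.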
row,Structure (SMILES),effective degradation of WDR5 in MV4;11 and/or MIAPACA2 cells
1,"Cc1ncsc1-c1ccc(CNC(=O)[C@@H]2C[C@@H](O)CN2C(=O)[C@@H](NC(=O)CCCCCCCC(=O)N2CCN(c3ncc(-c4cc(NC(=O)c5ccc(F)cc5C(F)(F)F)c(N5C[C@@H](C)N(C)[C@@H](C)C5)cc4F)cn3)CC2)C(C)(C)C)cc1 [XF078-113, (2S,4R)-1-((S)-2-(9-(4-(5-(2-fluoro-5-(4-fluoro-2-(trifluoromethyl)benzamido)-4-((3S,5R)-3,4,5-trimethylpiperazin-1-yl)phenyl)pyrimidin-2-yl)piperazin-1-yl)-9-oxononanamido)-3,3-dimethylbutanoyl)-4-hydroxy-N-(4-(4-methylthiazol-5-yl)benzyl)pyrrolidine-2-carboxamide]",able to effectively degrade WDR5
2,"C[C@@H]1CN(c2cc(F)c(-c3cnc(N4CCN(C(=O)CCOCCOCCOCCOCCNc5cccc6c5C(=O)N(C5CCC(=O)NC5=O)C6=O)CC4)nc3)cc2NC(=O)c2ccc(F)cc2C(F)(F)F)C[C@H](C)N1C (stereo partly drawn) [XF078-126, N-(5-(2-(4-(1-((2-(2,6-dioxopiperidin-3-yl)-1,3-dioxoisoindolin-4-yl)amino)-3,6,9,12-tetraoxapentadecan-15-oyl)piperazin-1-yl)pyrimidin-5-yl)-4-fluoro-2-((3S,5R)-3,4,5-trimethylpiperazin-1-yl)phenyl)-4-fluoro-2-(trifluoromethyl)benzamide]",able to effectively degrade WDR5
3,"Cc1ncsc1-c1ccc(CNC(=O)[C@@H]2C[C@@H](O)CN2C(=O)[C@@H](NC(=O)CCCCC(=O)N2CC=C(c3cc(NC(=O)c4c[nH]c(=O)cc4C(F)(F)F)c(N4C[C@@H](C)N(C)[C@@H](C)C4)cc3F)CC2)C(C)(C)C)cc1 [XF078-41, N-(4-fluoro-5-(1-(6-(((S)-1-((2S,4R)-4-hydroxy-2-((4-(4-methylthiazol-5-yl)benzyl)carbamoyl)pyrrolidin-1-yl)-3,3-dimethyl-1-oxobutan-2-yl)amino)-6-oxohexanoyl)-1,2,3,6-tetrahydropyridin-4-yl)-2-((3S,5R)-3,4,5-trimethylpiperazin-1-yl)phenyl)-6-oxo-4-(trifluoromethyl)-1,6-dihydropyridine-3-carboxamide]",able to effectively degrade WDR5
4,"Cc1ncsc1-c1ccc(CNC(=O)[C@@H]2C[C@@H](O)CN2C(=O)[C@@H](NC(=O)CCOCCOCCOCCOCCC(=O)N2CCN(c3ncc(-c4cc(NC(=O)c5ccc(F)cc5C(F)(F)F)c(N5C[C@@H](C)N(C)[C@@H](C)C5)cc4F)cn3)CC2)C(C)(C)C)cc1 [XF078-105, (2S,4R)-1-((S)-2-(tert-butyl)-19-(4-(5-(2-fluoro-5-(4-fluoro-2-(trifluoromethyl)benzamido)-4-((3S,5R)-3,4,5-trimethylpiperazin-1-yl)phenyl)pyrimidin-2-yl)piperazin-1-yl)-4,19-dioxo-7,10,13,16-tetraoxa-3-azanonadecanoyl)-4-hydroxy-N-(4-(4-methylthiazol-5-yl)benzyl)pyrrolidine-2-carboxamide]",able to effectively degrade WDR5
5,"Cc1ncsc1-c1ccc(CNC(=O)[C@@H]2C[C@@H](O)CN2C(=O)[C@@H](NC(=O)CCCCCCCCCC(=O)N2CCN(c3ccc(-c4cc(NC(=O)c5c[nH]c(=O)cc5C(F)(F)F)c(N5C[C@@H](C)N(C)[C@@H](C)C5)cc4F)cn3)CC2)C(C)(C)C)cc1 [XF067-133, N-(4-fluoro-5-(6-(4-(11-(((S)-1-((2S,4R)-4-hydroxy-2-((4-(4-methylthiazol-5-yl)benzyl)carbamoyl)pyrrolidin-1-yl)-3,3-dimethyl-1-oxobutan-2-yl)amino)-11-oxoundecanoyl)piperazin-1-yl)pyridin-3-yl)-2-((3S,5R)-3,4,5-trimethylpiperazin-1-yl)phenyl)-6-oxo-4-(trifluoromethyl)-1,6-dihydropyridine-3-carboxamide]",able to effectively degrade WDR5

# The remaining lines, values ahead:
row,effective degradation of WDR5 in MV4;11 and/or MIAPACA2 cells,Structure (SMILES)
1,able to effectively degrade WDR5,"C[C@@H]1CN(c2cc(F)c(C3=CCN(c4ncc(CN5CCN(C(=O)CCOCCOCCOCCNc6cccc7c6C(=O)N(C6CCC(=O)NC6=O)C7=O)CC5)cn4)CC3)cc2NC(=O)c2c[nH]c(=O)cc2C(F)(F)F)C[C@H](C)N1C (stereo partly drawn) [XF078-158, N-(5-(1-(5-((4-(3-(2-(2-(2-((2-(2,6-dioxopiperidin-3-yl)-1,3-dioxoisoindolin-4-yl)amino)ethoxy)ethoxy)ethoxy)propanoyl)piperazin-1-yl)methyl)pyrimidin-2-yl)-1,2,3,6-tetrahydropyridin-4-yl)-4-fluoro-2-((3S,5R)-3,4,5-trimethylpiperazin-1-yl)phenyl)-6-oxo-4-(trifluoromethyl)-1,6-dihydropyridine-3-carboxamide]"
2,able to effectively degrade WDR5,"Cc1ncsc1-c1ccc(CNC(=O)[C@@H]2C[C@@H](O)CN2C(=O)[C@@H](NC(=O)CCCCCCC(=O)NCCN2CCN(Cc3ccc(F)c(-c4ccc(N5C[C@@H](C)N(C)[C@@H](C)C5)c(NC(=O)c5c[nH]c(=O)cc5C(F)(F)F)c4)c3)CC2)C(C)(C)C)cc1 [XF078-14, N^1-(2-(4-((6-fluoro-3′-(6-oxo-4-(trifluoromethyl)-1,6-dihydropyridine-3-carboxamido)-4′-((3S,5R)-3,4,5-trimethylpiperazin-1-yl)-[1,1′-biphenyl]-3-yl)methyl)piperazin-1-yl)ethyl)-N^8-((S)-1-((2S,4R)-4-hydroxy-2-((4-(4-methylthiazol-5-yl)benzyl)carbamoyl)pyrrolidin-1-yl)-3,3-dimethyl-1-oxobutan-2-yl)octanediamide]"
3,able to effectively degrade WDR5,"Cc1ncsc1-c1ccc(CNC(=O)[C@@H]2C[C@@H](O)CN2C(=O)[C@@H](NC(=O)CCCCCCC(=O)N2CCN(Cc3cnc(N4CC=C(c5cc(NC(=O)c6c[nH]c(=O)cc6C(F)(F)F)c(N6C[C@@H](C)N(C)[C@@H](C)C6)cc5F)CC4)nc3)CC2)C(C)(C)C)cc1 [XF078-145, N-(4-fluoro-5-(1-(5-((4-(8-(((S)-1-((2S,4R)-4-hydroxy-2-((4-(4-methylthiazol-5-yl)benzyl)carbamoyl)pyrrolidin-1-yl)-3,3-dimethyl-1-oxobutan-2-yl)amino)-8-oxooctanoyl)piperazin-1-yl)methyl)pyrimidin-2-yl)-1,2,3,6-tetrahydropyridin-4-yl)-2-((3S,5R)-3,4,5-trimethylpiperazin-1-yl)phenyl)-6-oxo-4-(trifluoromethyl)-1,6-dihydropyridine-3-carboxamide]"
4,able to effectively degrade WDR5,"Cc1ncsc1-c1ccc(CNC(=O)[C@@H]2C[C@@H](O)CN2C(=O)[C@@H](NC(=O)COCCOCCOCCOCCOCC(=O)NCCN2CCN(Cc3ccc(F)c(-c4ccc(N5C[C@@H](C)N(C)[C@@H](C)C5)c(NC(=O)c5c[nH]c(=O)cc5C(F)(F)F)c4)c3)CC2)C(C)(C)C)cc1 [XF078-8, N^1-(2-(4-((6-fluoro-3′-(6-oxo-4-(trifluoromethyl)-1,6-dihydropyridine-3-carboxamido)-4′-((3S,5R)-3,4,5-trimethylpiperazin-1-yl)-[1,1′-biphenyl]-3-yl)methyl)piperazin-1-yl)ethyl)-N^17-((S)-1-((2S,4R)-4-hydroxy-2-((4-(4-methylthiazol-5-yl)benzyl)carbamoyl)pyrrolidin-1-yl)-3,3-dimethyl-1-oxobutan-2-yl)-3,6,9,12,15-pentaoxaheptadecanediamide]"
5,able to effectively degrade WDR5,"C[C@@H]1CN(c2ccc(-c3cc(CN4CCN(CCNC(=O)CCOCCOCCNc5cccc6c5C(=O)N(C5CCC(=O)NC5=O)C6=O)CC4)ccc3F)cc2NC(=O)c2c[nH]c(=O)cc2C(F)(F)F)C[C@H](C)N1C (stereo partly drawn) [XF078-26, N-(5′-((4-(2-(3-(2-(2-((2-(2,6-dioxopiperidin-3-yl)-1,3-dioxoisoindolin-4-yl)amino)ethoxy)ethoxy)propanamido)ethyl)piperazin-1-yl)methyl)-2′-fluoro-4-((3S,5R)-3,4,5-trimethylpiperazin-1-yl)-[1,1′-biphenyl]-3-yl)-6-oxo-4-(trifluoromethyl)-1,6-dihydropyridine-3-carboxamide]"
6,able to effectively degrade WDR5,"Cc1ncsc1-c1ccc(CNC(=O)[C@@H]2C[C@@H](O)CN2C(=O)[C@@H](NC(=O)CCCCCC(=O)NCCN2CCN(Cc3ccc(F)c(-c4ccc(N5C[C@@H](C)N(C)[C@@H](C)C5)c(NC(=O)c5c[nH]c(=O)cc5C(F)(F)F)c4)c3)CC2)C(C)(C)C)cc1 [XF078-13, N^1-(2-(4-((6-fluoro-3′-(6-oxo-4-(trifluoromethyl)-1,6-dihydropyridine-3-carboxamido)-4′-((3S,5R)-3,4,5-trimethylpiperazin-1-yl)-[1,1′-biphenyl]-3-yl)methyl)piperazin-1-yl)ethyl)-N^7-((S)-1-((2S,4R)-4-hydroxy-2-((4-(4-methylthiazol-5-yl)benzyl)carbamoyl)pyrrolidin-1-yl)-3,3-dimethyl-1-oxobutan-2-yl)heptanediamide]"
7,able to effectively degrade WDR5,"Cc1ncsc1-c1ccc(CNC(=O)[C@@H]2C[C@@H](O)CN2C(=O)[C@@H](NC(=O)CCOCCC(=O)NCCN2CCN(Cc3ccc(F)c(-c4ccc(N5C[C@@H](C)N(C)[C@@H](C)C5)c(NC(=O)c5c[nH]c(=O)cc5C(F)(F)F)c4)c3)CC2)C(C)(C)C)cc1 [XF078-2, N-(2′-fluoro-5′-((4-(2-(3-(3-(((S)-1-((2S,4R)-4-hydroxy-2-((4-(4-methylthiazol-5-yl)benzyl)carbamoyl)pyrrolidin-1-yl)-3,3-dimethyl-1-oxobutan-2-yl)amino)-3-oxopropoxy)propanamido)ethyl)piperazin-1-yl)methyl)-4-((3S,5R)-3,4,5-trimethylpiperazin-1-yl)-[1,1′-biphenyl]-3-yl)-6-oxo-4-(trifluoromethyl)-1,6-dihydropyridine-3-carboxamide]"
